In ChEMBL document CHEMBL3217754, “Nitro-based inhibitors against thermolysin” (Medchemcomm, 2011) one finds Ki data, which are given here for 13 compounds.

The target of this assay is T1, Thermolysin (Bacillus thermoproteolyticus, UniProt P00800).
T1 sequence (P00800 whole entry): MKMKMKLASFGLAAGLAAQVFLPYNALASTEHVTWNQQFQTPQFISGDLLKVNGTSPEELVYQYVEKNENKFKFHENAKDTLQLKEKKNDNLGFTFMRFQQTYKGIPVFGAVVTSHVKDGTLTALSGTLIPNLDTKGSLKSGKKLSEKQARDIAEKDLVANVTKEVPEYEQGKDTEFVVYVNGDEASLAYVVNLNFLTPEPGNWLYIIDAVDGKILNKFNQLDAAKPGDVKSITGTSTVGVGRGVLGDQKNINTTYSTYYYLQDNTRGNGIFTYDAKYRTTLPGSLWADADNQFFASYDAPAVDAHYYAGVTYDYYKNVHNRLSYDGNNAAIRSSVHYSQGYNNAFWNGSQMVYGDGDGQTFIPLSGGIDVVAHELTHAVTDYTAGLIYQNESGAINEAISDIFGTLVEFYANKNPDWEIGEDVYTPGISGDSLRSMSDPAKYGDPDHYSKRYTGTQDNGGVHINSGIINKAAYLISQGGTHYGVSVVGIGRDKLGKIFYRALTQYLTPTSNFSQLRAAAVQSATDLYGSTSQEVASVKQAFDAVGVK
In words: Competitive inhibition of Bacillus thermoproteolyticus thermolysin using N-[3-(2-furyl)acryloyl]Gly-L-Leu-NH2 as substrate by Dixon plot analysis.
The compound `COC(=O)[C@H](Cc1ccccc1)NC(=O)[C@H](CC(C)C)C[N+](=O)[O-]` showed an inhibitory constant (Ki) of 0.84 µM.
In turn, `NC(=O)[C@H](Cc1ccccc1)C[N+](=O)[O-]` gave a Ki of 7.6 µM.
Next, `COC(=O)[C@@H](Cc1ccccc1)NC(=O)[C@@H](Cc1ccccc1)C[N+](=O)[O-]`: 86 µM.
For `NC(=O)C(Cc1ccccc1)C[N+](=O)[O-]` (racemic) the value was 36 µM.
Take `COC(=O)[C@H](CC(C)C)NC(=O)[C@@H](CC(C)C)C[N+](=O)[O-]`: the Ki was 0.77 µM.
For `COC(=O)[C@H](Cc1ccccc1)NC(=O)[C@@H](CC(C)C)C[N+](=O)[O-]` the value was 7.2 µM; for `COC(=O)[C@H](Cc1ccccc1)NC(=O)[C@H](Cc1ccccc1)C[N+](=O)[O-]`, 0.95 µM; for `COC(=O)[C@@H](Cc1ccccc1)NC(=O)[C@H](Cc1ccccc1)C[N+](=O)[O-]`, 1.4 µM.
For `COC(=O)[C@H](CC(C)C)NC(=O)[C@H](CC(C)C)C[N+](=O)[O-]` the value was 0.083 µM; for `COC(=O)[C@H](CC(C)C)NC(=O)[C@H](Cc1ccccc1)C[N+](=O)[O-]`, 0.37 µM.
In turn, `COC(=O)[C@H](CC(C)C)NC(=O)[C@@H](Cc1ccccc1)C[N+](=O)[O-]` showed a Ki of 2.4 µM.
Next, `NC(=O)[C@@H](Cc1ccccc1)C[N+](=O)[O-]`: 663 µM; `COC(=O)[C@H](Cc1ccccc1)NC(=O)[C@@H](Cc1ccccc1)C[N+](=O)[O-]`: 79 µM.

For orientation: Ki means a dissociation constant, usually derived from enzyme kinetics or from competition with a known ligand. A lower Ki goes with a stronger hold on the target.
